“Also recorded” adds a separate entry of the source.
Assays:
pancrelipase [1] = experiment: Pancrelipase reactivation by colipase; type: biochemical; settings: for % Lipase Activity with Colipase: colipase 5 μg/mL; for effect of added colipase on the inhibition of pancrelipase (in words): excess colipase added to reaction mixture
Description: In brief, the above lipase assay procedure was used with the following variation: colipase solution replaced the distilled water so the concentration of colipase in the final reaction mixture was 5 μg/mL.

HIV patients = settings: Kakuda et al. 1998; cited from earlier work
pancrelipase [2] = biological target: T1, pancrelipase (Sus scrofa, UniProt P00591); experiment: Lipase assay (USP titrimetric): inhibition of pancrelipase by HAART drugs and excipients; type: biochemical
T1 sequence (P00591 1-450): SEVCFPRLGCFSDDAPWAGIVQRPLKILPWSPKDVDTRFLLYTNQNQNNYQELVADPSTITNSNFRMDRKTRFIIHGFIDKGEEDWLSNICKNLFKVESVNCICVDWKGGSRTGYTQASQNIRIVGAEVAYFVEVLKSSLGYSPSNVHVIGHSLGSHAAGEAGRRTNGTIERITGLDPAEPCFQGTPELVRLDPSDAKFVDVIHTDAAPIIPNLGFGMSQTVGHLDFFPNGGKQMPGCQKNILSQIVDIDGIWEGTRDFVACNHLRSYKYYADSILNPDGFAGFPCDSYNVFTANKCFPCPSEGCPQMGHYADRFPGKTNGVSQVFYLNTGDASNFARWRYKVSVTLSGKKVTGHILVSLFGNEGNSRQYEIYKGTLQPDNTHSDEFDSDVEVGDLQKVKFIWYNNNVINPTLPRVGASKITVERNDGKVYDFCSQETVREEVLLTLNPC
Description: The enzyme sources consisted of USP Reference Standard Pancrelipase, USP Reference Standard Trypsin, colipase (Sigma Chemical Co.), and enterokinase (ICN Biochemicals). Appropriate concentrations of enzyme reference standard were prepared in cold distilled water, as described in USP reference assay procedures. The Infectious Disease Clinic in Somerville, N.J. provided the HAART medications. Pure drugs could not be obtained so commercial drug preparations were used in the assays.
One unit (U) of lipase activity is defined as the amount of enzyme that liberates one μequivalent of free fatty acid from triglycerides per minute at pH 9.0 and 37° C. Lipase activity (U/mg) was determined by a lipase specific titrimetric assay described in the United States Pharmacopeia (USP), Volume XXII. In brief, the substrate consists of 10% olive oil in acacia solution, 40-mg/mL sodium taurocholate, 0.075M calcium chloride, 0.05M Tris in 3.0M NaCl buffer solution (pH 7.5) and distilled water. The emulsified substrate is incubated at 37° C. and brought to pH 9.0 with 0.02N NaOH. At time zero, 1.0 mL of enzyme solution was added. A pH stat autotitrator was used to maintain pH 9.0 and the volume of 0.02 N NaOH dispensed per unit time was recorded for five (5) minutes. From the initial slope of this plot, lipase activity was calculated using the following equation: […]

pancrelipase [3] = experiment: Recovery of pancrelipase activity after inhibition, by addition of excess lipase; type: biochemical
Description: The above procedure was used to monitor pancrelipase activity with the exception that drug was not preincubated with the substrate. At time zero 1.0 mL of pancrelipase was added to initiate the reaction. At five (5) minutes, 1.0 mL of HAART drug solution was added to the reaction mixture to cause inhibition of lipase activity. At twelve (12) minutes an additional 1.0 mL of pancrelipase was added to the reaction mixture to overcome HAART inhibition. The reaction was monitored for twenty (20) minutes.

Row | Compound | % Lipase Activity No Colipase (pancrelipase [1]; Drug Conc. 0.002 mg/mL) [%] | % Lipase Activity with Colipase (pancrelipase [1]; Drug Conc. 0.002 mg/mL) [%] | effect of added colipase on the inhibition of pancrelipase (in words) (pancrelipase [1]) | HIV patients experiencing diarrhea (HIV patients) | inhibition of pancrelipase (in words) (pancrelipase [2]) | % Pancrelipase Activity (pancrelipase [3]; after addition of drug solution at 5 minutes, before excess lipase) [%] | % Reactivation of Pancrelipase (pancrelipase [3]; after additional 1.0 mL of pancrelipase at 12 minutes) [%] | % Lipase Activity No Colipase (pancrelipase [1]; Drug Conc. 10.0 mg/mL) [%] | % Lipase Activity with Colipase (pancrelipase [1]; Drug Conc. 10.0 mg/mL) [%]
1 | CCCCCCCCCCC[C@@H](C[C@@H]1OC(=O)[C@H]1CCCCCC)OC(=O)[C@H](CC(C)C)NC=O [ORLISTAT ®, reference compound] | 37 | 29 | no effect |  |  |  |  |  | 
2 | Cc1c(O)cccc1C(=O)N[C@@H](CSc1ccccc1)[C@H](O)CN1C[C@H]2CCCC[C@H]2C[C@H]1C(=O)NC(C)(C)C [nelfinavir, Nelfinavir] |  |  |  | 12-20% |  |  |  |  | 
3 | D-α-tocopheryl polyethylene glycol 1000 succinate [TPGS] |  |  | Pancrelipase inhibition was reversed; also recorded: restored pancrelipase activity |  | significant inhibition; also recorded: significantly inhibited | 55 | 98 | 21 | 79

Reference: patent publication US20100021505A1, “Composition and method to prevent or reduce diarrhea and steatorrhea in HIV patients” (priority 2008, published 2010)
